Values joined by “and” are separate entries in the source; they are usually repeats but may differ in a detail not shown here. Equal values may be shown once. Toxic doses and inconclusive results are not listed. Cut-off read from the data, not from the text of the source: active = T/C of 150% or more; inactive = T/C below 125%.
Test system: L1210 leukemia ip in BDF1 mice, survival T/C
Assay: NCI In Vivo Anticancer Drug Screen. Data for tumor model L1210 Leukemia (intraperitoneal) in B6D2F1 (BDF1) mice
Conditions: endpoint: mean survival time, higher = longer survival
Method in brief: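 Read-out is survival time, reported as the treated-group measurement over the vehicle-control measurement.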

[1] = dose: 100.0 mg/kg/injection, schedule: Q01DX009 (ip), vehicle: saline with Tween-80
[2] = dose: 200.0 mg/kg/injection, schedule: Q01DX009 (ip), vehicle: saline with Tween-80
[3] = dose: 100.0 mg/kg/injection, schedule: Q04DX003 (ip), vehicle: Klucel (hydroxypropylcellulose) (HPC)
[4] = dose: 200.0 mg/kg/injection, schedule: Q04DX003 (ip), vehicle: Klucel (hydroxypropylcellulose) (HPC)
[5] = dose: 400.0 mg/kg/injection, schedule: Q04DX003 (ip), vehicle: Klucel (hydroxypropylcellulose) (HPC)
[6] = dose: 200.0 mg/kg/injection, schedule: Q01DX009 (ip), vehicle: Klucel (hydroxypropylcellulose) (HPC)
[7] = dose: 400.0 mg/kg/injection, schedule: Q01DX009 (ip), vehicle: Klucel (hydroxypropylcellulose) (HPC)
[8] = dose: 100.0 mg/kg/injection, schedule: Q04DX003 (ip), vehicle: saline
[9] = dose: 200.0 mg/kg/injection, schedule: Q04DX003 (ip), vehicle: saline
[10] = dose: 100.0 mg/kg/injection, schedule: Q04DX003 (ip), vehicle: saline with Tween-80
[11] = dose: 200.0 mg/kg/injection, schedule: Q04DX003 (ip), vehicle: saline with Tween-80
[12] = dose: 400.0 mg/kg/injection, schedule: Q04DX003 (ip), vehicle: saline with Tween-80

Measured: T/C

O=C1C=C(Nc2ccc(Cl)cc2)C(=O)c2ccccc21
inactive: dose: 75.0 mg/kg/injection, schedule: Q01DX001 (ip), vehicle: carboxymethylcellulose (CMC) 93 % of control | dose: 300.0 mg/kg/injection, schedule: Q01DX001 (ip), vehicle: carboxymethylcellulose (CMC) 87 % of control

Cc1c(-c2ccccc2Br)nc2ccccc2c1C(=O)O
inactive: dose: 100.0 mg/kg/injection, schedule: Q01DX001 (ip), vehicle: saline 96 % of control | dose: 200.0 mg/kg/injection, schedule: Q01DX001 (ip), vehicle: saline 89 % of control

COc1ccc(Cl)cc1NC(=O)Oc1ccc(-c2ccccc2)cc1Cl
inactive: [1] 99 % of control | [2] 92 % of control | dose: 400.0 mg/kg/injection, schedule: Q01DX009 (ip), vehicle: saline with Tween-80 91 % of control

Cc1nc(-c2ccc(N=Cc3ccc(N(CCOS(C)(=O)=O)CCOS(C)(=O)=O)cc3C)cc2)c(C)s1
inactive: dose: 5.0 mg/kg/injection, schedule: Q01DX009 (ip), vehicle: Klucel (hydroxypropylcellulose) (HPC) 120 % of control | dose: 10.0 mg/kg/injection, schedule: Q01DX009 (ip), vehicle: Klucel (hydroxypropylcellulose) (HPC) 120 % of control | dose: 20.0 mg/kg/injection, schedule: Q01DX001 (ip), vehicle: Klucel (hydroxypropylcellulose) (HPC) 121 % of control | dose: 26.6 mg/kg/injection, schedule: Q01DX001 (ip), vehicle: Klucel (hydroxypropylcellulose) (HPC) 108 % of control | dose: 40.0 mg/kg/injection, schedule: Q01DX001 (ip), vehicle: Klucel (hydroxypropylcellulose) (HPC) 119 % of control | dose: 60.0 mg/kg/injection, schedule: Q01DX001 (ip), vehicle: Klucel (hydroxypropylcellulose) (HPC) 111 % of control

O=C(NC(=O)c1ccc(Cl)cc1)Nc1ccc(Cl)cc1C(F)(F)F
inactive: dose: 50.0 mg/kg/injection, schedule: Q01DX009 (ip), vehicle: saline with Tween-80 98 % of control | [1] 103 % of control | [2] 98 % of control

CCOC(=O)CC(=O)CC(C)C
inactive: [3] 101 % of control | [4] 97 % of control | [5] 88 % of control

CCCCOC(=O)CN(C)/N=N/c1nc[nH]c1C(=O)OCC
inactive: dose: 25.0 mg/kg/injection, schedule: Q01DX001 (ip), vehicle: Klucel (hydroxypropylcellulose) (HPC) 97 % of control | dose: 25.0 mg/kg/injection, schedule: Q04DX003 (ip), vehicle: Klucel (hydroxypropylcellulose) (HPC) 99 % of control | dose: 50.0 mg/kg/injection, schedule: Q01DX001 (ip), vehicle: Klucel (hydroxypropylcellulose) (HPC) 97 % of control | dose: 50.0 mg/kg/injection, schedule: Q04DX003 (ip), vehicle: Klucel (hydroxypropylcellulose) (HPC) 96 % of control | dose: 100.0 mg/kg/injection, schedule: Q01DX001 (ip), vehicle: Klucel (hydroxypropylcellulose) (HPC) 99 % of control and 104 % of control | [3] 94 % of control

Clc1ccc(Br)c(Cl)c1
inactive: dose: 100.0 mg/kg/injection, schedule: Q01DX009 (ip), vehicle: Klucel (hydroxypropylcellulose) (HPC) 98 % of control | [3] 94 % of control | [6] 94 % of control | [4] 109 % of control | [7] 92 % of control | [5] 93 % of control

COc1ccc(CCN=Cc2ccc3c(c2)Cc2ccccc2-3)cc1OC
inactive: [8] 105 % of control | [9] 108 % of control | dose: 400.0 mg/kg/injection, schedule: Q04DX003 (ip), vehicle: saline 90 % of control

CC(=O)Nc1ccc(OC(C)=O)cc1
inactive: [10] 106 % of control | [11] 106 % of control | [12] 116 % of control

CCC[CH2][Sn](=[O])[CH2]CCC
inactive: dose: 1.5 mg/kg/injection, schedule: Q01DX001 (ip), vehicle: saline with Tween-80 90 % of control | dose: 3.0 mg/kg/injection, schedule: Q01DX001 (ip), vehicle: saline with Tween-80 100 % of control | dose: 6.0 mg/kg/injection, schedule: Q01DX001 (ip), vehicle: saline with Tween-80 107 % of control

Cc1cc(Br)c2c(C)ccc(C)c2n1
inactive: dose: 2.0 mg/kg/injection, schedule: Q01DX001 (ip), vehicle: saline 98 % of control | dose: 5.0 mg/kg/injection, schedule: Q01DX001 (ip), vehicle: saline 102 % of control | dose: 10.0 mg/kg/injection, schedule: Q01DX001 (ip), vehicle: saline 96 % of control

c1cc[c]([Bi]([c]2ccccc2)[c]2ccccc2)cc1
inactive: dose: 50.0 mg/kg/injection, schedule: Q01DX001 (ip), vehicle: other 95 % of control | dose: 100.0 mg/kg/injection, schedule: Q01DX001 (ip), vehicle: other 97 % of control | [10] 97 % of control | dose: 200.0 mg/kg/injection, schedule: Q01DX001 (ip), vehicle: other 97 % of control | [11] 102 % of control | dose: 400.0 mg/kg/injection, schedule: Q01DX001 (ip), vehicle: other 97 % of control | [12] 103 % of control

CN(C)CCCN1CCC2(CC1)C(C#N)C(=O)NC(=O)C2C#N (stereo unspecified)
inactive: dose: 100.0 mg/kg/injection, schedule: Q04DX002 (ip), vehicle: saline 92 % of control | dose: 200.0 mg/kg/injection, schedule: Q04DX002 (ip), vehicle: saline 100 % of control | dose: 400.0 mg/kg/injection, schedule: Q04DX002 (ip), vehicle: saline 111 % of control

Cc1sc2c(c1-c1ccccc1)C(=O)CCCN2
inactive: [10] 94 % of control | [11] 100 % of control | [12] 100 % of control

COc1ccc2ncc(C)c(CO)c2c1
inactive: dose: 44.0 mg/kg/injection, schedule: Q01DX009 (ip), vehicle: Klucel (hydroxypropylcellulose) (HPC) 96 % of control | dose: 66.0 mg/kg/injection, schedule: Q01DX009 (ip), vehicle: Klucel (hydroxypropylcellulose) (HPC) 98 % of control | dose: 150.0 mg/kg/injection, schedule: Q01DX009 (ip), vehicle: Klucel (hydroxypropylcellulose) (HPC) 101 % of control | [6] 102 % of control | [7] 102 % of control

O=c1ccn2ccccc2n1
inactive: dose: 50.0 mg/kg/injection, schedule: Q01DX009 (ip), vehicle: saline 101 % of control | dose: 100.0 mg/kg/injection, schedule: Q01DX009 (ip), vehicle: saline 99 % of control | [8] 103 % of control | dose: 200.0 mg/kg/injection, schedule: Q01DX009 (ip), vehicle: saline 98 % of control | [9] 109 % of control
